Results on 4 compounds are retold here after ChEMBL document CHEMBL5257156, “Improving binding entropy by higher ligand symmetry? - A case study with human matriptase” (RSC Med Chem, 2023).

Each structure is given as a SMILES string.

In test [1] the target is T1, Suppressor of tumorigenicity 14 protein (Homo sapiens, UniProt Q9Y5Y6).
T1 sequence (Q9Y5Y6 whole entry): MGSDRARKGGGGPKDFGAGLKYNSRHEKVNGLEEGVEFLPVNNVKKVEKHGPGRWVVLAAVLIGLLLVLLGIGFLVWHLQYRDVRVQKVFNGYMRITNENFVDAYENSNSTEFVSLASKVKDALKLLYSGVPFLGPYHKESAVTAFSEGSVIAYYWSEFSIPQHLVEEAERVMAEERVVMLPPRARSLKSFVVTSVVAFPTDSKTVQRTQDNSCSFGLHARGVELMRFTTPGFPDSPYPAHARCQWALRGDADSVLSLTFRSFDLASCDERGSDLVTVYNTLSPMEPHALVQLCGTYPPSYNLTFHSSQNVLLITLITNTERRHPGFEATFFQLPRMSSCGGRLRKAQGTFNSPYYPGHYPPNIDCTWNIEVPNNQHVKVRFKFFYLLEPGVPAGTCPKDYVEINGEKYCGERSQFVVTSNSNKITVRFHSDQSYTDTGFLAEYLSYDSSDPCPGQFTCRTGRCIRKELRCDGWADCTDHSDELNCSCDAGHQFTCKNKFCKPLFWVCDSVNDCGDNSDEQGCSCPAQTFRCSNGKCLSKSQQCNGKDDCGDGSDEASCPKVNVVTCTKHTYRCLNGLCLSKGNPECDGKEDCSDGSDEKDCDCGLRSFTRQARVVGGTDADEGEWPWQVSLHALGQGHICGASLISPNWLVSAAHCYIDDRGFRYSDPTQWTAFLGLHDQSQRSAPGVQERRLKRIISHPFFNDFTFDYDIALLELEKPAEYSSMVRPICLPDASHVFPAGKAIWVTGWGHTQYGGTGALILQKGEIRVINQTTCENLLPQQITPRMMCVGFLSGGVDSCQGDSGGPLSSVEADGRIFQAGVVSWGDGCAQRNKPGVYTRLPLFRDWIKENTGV
Kind of test: Binding affinity to recombinant hexahistidine tagged human MT-SP1 (596 to 855 residues) expressed in Escherichia coli BL21 gold (DE3) cells […] by ITC analysis.

The target in test [2] is T2, Suppressor of tumorigenicity 14 protein (Homo sapiens) (UniProt Q9Y5Y6).
T2 sequence (whole entry): T1 sequence (Q9Y5Y6 whole entry)
Kind of test: Binding affinity to recombinant hexahistidine tagged human MT-SP1 (596 to 855 residues) expressed in Escherichia coli BL21 gold (DE3) cells assessed as change in entropy by ITC analysis. In general terms: In ITC the heat of successive injections is recorded.

Test [3] deals with T2, Suppressor of tumorigenicity 14 protein (Homo sapiens). Kind of test: Binding affinity to recombinant hexahistidine tagged human MT-SP1 (596 to 855 residues) expressed in Escherichia coli BL21 gold (DE3) cells assessed as free energy change by ITC analysis.
Test [4] concerns the target T1, Suppressor of tumorigenicity 14 protein. Description: Inhibition of recombinant hexahistidine tagged human MT-SP1 (596 to 855 residues) expressed in Escherichia coli BL21 gold (DE3) cells using Boc-Leu-Arg-Arg-AMC as substrate measured every 30 secs for 10 mins by fluorescence based assay.
Test [5] has as its target T2, Suppressor of tumorigenicity 14 protein (Homo sapiens). Description: Binding affinity to recombinant hexahistidine tagged human MT-SP1 (596 to 855 residues) expressed in Escherichia coli BL21 gold (DE3) cells assessed as change in enthalpy by ITC analysis.
The target of test [6] is T1, Suppressor of tumorigenicity 14 protein. Kind of test: Inhibition of human matriptase using Mes-D-Pro-Arg-AMC.2TFA as substrate incubated for 10 mins by fluorescence based assay.

Consider `N=C(N)c1ccc(Oc2cc(Oc3ccc(CN)cc3)cc(Oc3ccc(CN)cc3)c2)cc1`, for which, in test [1], the dissociation constant (Kd) was 2.52 µM. In addition, the -TdeltaS in test [2] was -9.7 kcal/mol. For the same compound, the deltaG in test [3] is -7.67 kcal/mol. In addition, the Ki in test [4] was determined as 0.775 µM. The deltaH in test [5] is 2.03 kcal/mol.

With `NCc1ccc(Oc2cc(Oc3ccc(CN)cc3)cc(Oc3ccc(CN)cc3)c2)cc1`, the Kd in test [1] turned out to be 10.2 µM. For the same compound, in test [2], the -TdeltaS was -8.15 kcal/mol. The deltaG in test [3] was -6.91 kcal/mol. Further, in test [4], the inhibitory constant (Ki) came out at 18.4 µM. The deltaH in test [5] stood at 1.24 kcal/mol.

As to `N=C(N)c1ccc(CCNC(=O)CC(=O)NCCc2ccc(C(=N)N)cc2)cc1`, in test [1], the Kd stood at 1.45 µM. In addition, the -TdeltaS in test [2] is -4.64 kcal/mol. For the same compound, in test [3], the deltaG is -7.98 kcal/mol. Further, the affinity in test [6], expressed as Ki, was 4.23 µM. The deltaH in test [5] is -3.35 kcal/mol.

As to `N=C(N)c1ccc(CCNC(=O)C(C(=O)NCCc2ccc(C(=N)N)cc2)C(=O)NCc2ccc(C(=N)N)cc2)cc1` (stereo not given), in test [1], the Kd turned out to be 0.392 µM. In addition, the -TdeltaS in test [2] is -7.19 kcal/mol. Besides, the deltaG in test [3] is -8.82 kcal/mol. In addition, the inhibition constant Ki in test [6] is 0.393 µM. In test [5], the deltaH is -1.63 kcal/mol.

Broadly, the Kd is the concentration at which binding is half-saturated. Usually Ki stands for a dissociation constant, usually derived from enzyme kinetics or from competition with a known ligand.
